pIC50: −log10 of the molar value.
Biological target: KIF18A (Homo sapiens (Human), UniProt Q8NI77)
Experiment: KIF18A ATPase activity under tubulin stimulation (ADP-Glo assay)
Assay type: biochemical
Settings: KIF18A 30 nM, ATP 150 μM, pig microtubules
Protocol: This experiment assesses the inhibitory effect of the compounds of the present disclosure on the KIF18A target according to the IC50 values by measuring the KIF18A ATPase activity under tubulin stimulation with the presence of the compounds.
• 1. Preparation of 30 mL of reaction buffer: • (1) 450 μL 1M Tris-HCl (pH=7.5)+300 μL 1M MgCl2+30 μL 10% Pluronic F-68 (ThermoFisher, 24040032-100 ml); • (2) adjusting pH to 7.5, and adding water to adjust the volume to 30 mL. • 2. Preparation of a 5 mg/mL pig microtubule (Microtubules; MT) (Cytoskeleton Inc, MT002) stock solution: • (1) 10 mL PM buffer=150 μL 1 M PIPES (pH 7.0)+20 μL 0.5 mM MgCl2+100 μL 2 mM Taxol (Cytoskeleton Inc, TXD01)+9730 μL water. • (2) MT ([…]): Adding 100 μL PM buffer to prepare a 5 mg/mL stock solution. Keeping the MT (Cytoskeleton Inc, MT002) at room temperature for 10-15 minutes, gently mixing and storing same at −80° C. • 3. Preparation of 2 mL of kinase buffer: 2 mL reaction buffer+1 μL 2 mM Taxol (Cytoskeleton Inc, TXD01)+12 μL 5 mg/mL MT (Cytoskeleton Inc, MT002). • 4. Preparation of 2×KIF18A (30 nM) (ChemPartner, CPB-P22-31645) working solution: 2.4 μL 10 μM KIF18A (ChemPartner, CPB-P22-31645)+800 μL 1× kinase buffer. • 5. Preparation of 2×ATP (150 μM) (Promega, G9101) working solution: 12 μL 10 mM ATP+800 μL 1× kinase buffer. • 6. 25 nL of compound was transferred to a 384-well plate using Echo650. • 7. 2.5 μL of 2×KIF18A from Step 4 (final concentration of 30 nM) was added to the 384-well plate and the plate was incubated at 25° C. for 15 minutes. • 8. 2.5 μL of 2×ATP from Step 5 (final concentration of 150 μM) was added to the 384-well plate and the plate was incubated at 25° C. for 15 minutes. • 9. 5 μL ADP-Glo™ Reagent (Promega, G9101) was added to the 384-well plate and the plate was incubated at 25° C. for 40 minutes. • 10. 10 μL of kinase detection reagent (Promega, G9101) was added to the 384-well plate and the plate was incubated at 25° C. for 40 minutes. • 11. Luminescence values were measured using the EnVision Xcite Multilabel Reader (PerkinElmer, 2105-0020).

KIF18A, sequence (Q8NI77 whole entry): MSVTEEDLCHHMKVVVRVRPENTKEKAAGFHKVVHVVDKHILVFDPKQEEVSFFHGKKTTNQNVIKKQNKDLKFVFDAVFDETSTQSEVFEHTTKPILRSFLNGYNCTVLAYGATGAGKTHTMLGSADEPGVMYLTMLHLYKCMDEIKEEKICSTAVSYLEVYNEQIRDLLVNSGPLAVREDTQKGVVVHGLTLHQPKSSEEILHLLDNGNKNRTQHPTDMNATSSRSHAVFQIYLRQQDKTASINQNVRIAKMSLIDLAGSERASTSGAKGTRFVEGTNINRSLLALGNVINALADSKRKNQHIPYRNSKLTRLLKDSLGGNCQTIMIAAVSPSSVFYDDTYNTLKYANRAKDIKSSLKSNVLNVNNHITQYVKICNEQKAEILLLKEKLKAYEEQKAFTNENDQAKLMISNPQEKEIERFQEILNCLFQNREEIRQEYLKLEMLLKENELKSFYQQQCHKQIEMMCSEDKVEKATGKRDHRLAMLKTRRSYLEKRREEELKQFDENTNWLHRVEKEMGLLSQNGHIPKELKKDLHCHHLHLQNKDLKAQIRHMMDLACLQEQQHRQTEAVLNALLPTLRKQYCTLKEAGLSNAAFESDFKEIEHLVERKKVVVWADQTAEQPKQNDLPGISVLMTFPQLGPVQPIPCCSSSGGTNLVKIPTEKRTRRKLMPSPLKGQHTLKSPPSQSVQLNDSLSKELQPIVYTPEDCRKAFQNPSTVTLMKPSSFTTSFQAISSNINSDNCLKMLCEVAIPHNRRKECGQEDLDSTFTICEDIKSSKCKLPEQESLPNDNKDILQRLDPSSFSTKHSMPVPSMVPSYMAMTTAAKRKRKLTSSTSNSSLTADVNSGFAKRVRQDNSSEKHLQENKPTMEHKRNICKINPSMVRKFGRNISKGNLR
KIF18A, sequence (P02550 whole entry partner): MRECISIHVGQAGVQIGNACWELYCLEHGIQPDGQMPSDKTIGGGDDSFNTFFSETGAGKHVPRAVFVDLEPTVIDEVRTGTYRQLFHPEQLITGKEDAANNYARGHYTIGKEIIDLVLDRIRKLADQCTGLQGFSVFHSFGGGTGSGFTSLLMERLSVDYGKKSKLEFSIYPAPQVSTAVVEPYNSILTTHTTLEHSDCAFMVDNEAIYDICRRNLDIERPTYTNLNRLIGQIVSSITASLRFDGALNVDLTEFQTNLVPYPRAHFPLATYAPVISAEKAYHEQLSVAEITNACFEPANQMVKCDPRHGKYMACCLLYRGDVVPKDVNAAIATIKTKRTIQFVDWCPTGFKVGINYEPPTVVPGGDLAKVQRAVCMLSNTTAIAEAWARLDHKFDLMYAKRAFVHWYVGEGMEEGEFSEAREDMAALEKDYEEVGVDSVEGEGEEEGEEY
KIF18A, sequence (P02554 whole entry partner): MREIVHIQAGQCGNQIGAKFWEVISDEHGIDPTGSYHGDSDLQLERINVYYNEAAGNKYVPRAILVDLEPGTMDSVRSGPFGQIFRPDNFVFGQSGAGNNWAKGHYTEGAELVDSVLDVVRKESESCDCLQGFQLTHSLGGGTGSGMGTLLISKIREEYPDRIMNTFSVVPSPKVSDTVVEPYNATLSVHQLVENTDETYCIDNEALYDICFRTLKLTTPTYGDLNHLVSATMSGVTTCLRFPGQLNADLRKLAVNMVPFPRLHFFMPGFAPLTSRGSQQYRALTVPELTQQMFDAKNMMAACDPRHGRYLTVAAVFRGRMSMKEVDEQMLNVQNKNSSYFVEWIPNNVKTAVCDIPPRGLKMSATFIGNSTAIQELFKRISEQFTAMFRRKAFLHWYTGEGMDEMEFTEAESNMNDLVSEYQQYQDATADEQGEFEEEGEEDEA

SMILES | pIC50
COC1c2cc3c(NC(=O)c4ccc(NS(=O)(=O)CCO)cc4N4CCC5(CC4)CC5)cccc3n2CCC1(F)F (single isomer, unassigned) [Compound 385-P1, N-(8,8-difluoro-9-(methoxy-d3)-6,7,8,9-tetrahydropyridino[1,2-a]indol-1-yl)-4-((2-hydroxyethyl)sulfonamido)-2-(6-azaspiro[2.5]oct-6-yl)benzamide] | 6.30 to 7.30
COC1c2cc3c(NC(=O)c4ccc(NS(=O)(=O)CCO)cc4N4CCC5(CC4)CC5)cccc3n2CCC1(F)F (single isomer, unassigned) [Compound 385-P2, N-(8,8-difluoro-9-(methoxy-d3)-6,7,8,9-tetrahydropyridino[1,2-a]indol-1-yl)-4-((2-hydroxyethyl)sulfonamido)-2-(6-azaspiro[2.5]oct-6-yl)benzamide] | 6.30 to 7.30
CN1CCc2c(NC(=O)c3ccc(NS(=O)(=O)CCO)cc3N3CCC4(CC3)CC4)cccc21 [Example 6, 4-(N-(2-hydroxyethyl)sulfonamido)-N-(1-methylindolin-4-yl)-2-(6-azaspiro[2.5]octan-6-yl)benzamide] | 6.30 to 7.30
CN1CCCc2c(NC(=O)c3ccc(NS(=O)(=O)CCO)cc3N3CCC4(CC3)CC4)ccnc21 [Example 7, 4-(2-hydroxyethyl)sulfonamido-N-(8-methyl-5,6,7,8-tetrahydro-1,8-naphthyridin-4-yl)-2-(6-azaspiro[2.5]octan-6-yl)benzamide] | 6.30 to 7.30
O=C(Nc1ccnc2c1CCCN2CC1CC1)c1ccc(NS(=O)(=O)CCO)cc1N1CCC2(CC1)CC2 [Example 8, 4-(2-hydroxyethyl)sulfonamido-N-(8-cyclopropylmethyl-5,6,7,8-tetrahydro-1,8-naphthyridin-4-yl)-2-(6-azaspiro[2.5]octan-6-yl)benzamide] | 6.30 to 7.30
Cn1ccc2c(NC(=O)c3ccc(NS(=O)(=O)CCO)cc3N3CCC4(CC3)CC4)cccc21 [Example 10, 4-((2-hydroxyethyl)sulfonamido)-N-(1-methyl-1H-indol-4-yl)-2-(6-azaspiro[2.5]octan-6-yl)benzamide] | 6.30 to 7.30
CN1CCCCc2c(NC(=O)c3ccc(NS(=O)(=O)CCO)cc3N3CCC4(CC3)CC4)cccc21 [Example 11, 4-((2-hydroxyethyl)sulfonamido)-N-(1-methyl-2,3,4,5-tetrahydro-1H-benzo[b]azepin-6-yl)-2-(6-azaspiro[2.5]octan-6-yl)benzamide] | 5.30 to 6.30
O=C(Nc1cccc2c1CCCCN2CC1CC1)c1ccc(NS(=O)(=O)CCO)cc1N1CCC2(CC1)CC2 [Example 12] | 5.30 to 6.30
O=C(Nc1cccc2c1CCN2CC1CCC1)c1ccc(NS(=O)(=O)CCO)cc1N1CCC2(CC1)CC2 [Example 14, N-(1-(cyclobutylmethyl)dihydroindol-4-yl)-4-((2-hydroxyethyl)sulfonamido)-2-(6-azaspiro[2.5]octan-6-yl)benzamide] | 6.30 to 7.30
O=C(Nc1cccc2c1CCN2CC1CCCC1)c1ccc(NS(=O)(=O)CCO)cc1N1CCC2(CC1)CC2 [Example 15, N-(1-(cyclopentylmethyl)dihydroindol-4-yl)-4-((2-hydroxyethyl)sulfonamido)-2-(6-azaspiro[2.5]oct-6-yl)benzamide] | 5.30 to 6.30
O=C(Nc1cccc2c1C1(CC1)C(=O)N2CC1CC1)c1ccc(NS(=O)(=O)CCO)cc1N1CCC2(CC1)CC2 [Example 17, N-(1′-(cyclopropylmethyl)-2′-oxospiro[cyclopropane-1,3′-indolin]-4′-yl)-4-((2-hydroxyethyl)sulfonamido)-2-(6-azaspiro[2.5]octan-6-yl)benzamide] | < 5.30
O=C(Nc1cnc2n1CCCC2)c1ccc(NS(=O)(=O)CCO)cc1N1CCC2(CC1)CC2 [Example 19, 4-((2-hydroxyethyl)sulfonamido)-2-(6-azaspiro[2.5]octan-6-yl)-N-(5,6,7,8-tetrahydroimidazo[1,2-a]pyridin-3-yl)benzamide] | < 5.30
O=C(Nc1ccnc(N2CCC(F)(F)CC2)c1)c1ccc(NS(=O)(=O)CCO)cc1OC1CCCCC1 [Example 22] | 6.30 to 7.30
O=C(Nc1ccnc(N2CCC(F)(F)CC2)c1)c1ccc(NS(=O)(=O)CCO)cc1OC1CCOCC1 [Example 23, N-(2-(4,4-difluoropiperidin-1-yl)pyridin-4-yl)-4-((2-hydroxyethyl)sulfonamide)-2-((tetrahydro-2H-pyran-4-yl)oxy)benzamide] | < 5.30
O=C(Nc1ccnc(N2CCC(F)(F)CC2)c1)c1ccc(NS(=O)(=O)CCO)cc1OC1CCC(F)(F)CC1 [Example 24, 2-((4,4-difluorocyclohexyl)oxy)-N-(2-(4,4-difluoropiperidin-1-yl)pyridin-4-yl)-4-((2-hydroxyethyl)sulfonamide)benzamide] | 5.30 to 6.30
O=C(Nc1cccc2c1CCN2CC1CC1)c1ccc(NS(=O)(=O)CCO)c2c1OCCO2 [Example 25, N-(1-(cyclopropylmethyl)indolin-4-yl)-8-((2-hydroxyethyl)sulfonamido)-2,3-dihydrobenzo[b][1,4]dioxine-5-carboxamide] | < 5.30
Cc1cc(NC(=O)c2ccc(NS(=O)(=O)CCO)cc2OC2CC3(CCC3)C2)nc(N2CCC(F)(F)CC2)n1 [Example 26, N-(2-(4,4-difluoropiperidin-1-yl)-6-methylpyrimidin-4-yl)-4-((2-hydroxyethyl)sulfonamido)-2-(spiro[3.3]heptan-2-yloxy)benzamide] | 6.30 to 7.30
O=C(Nc1cccc2c1CCN2CC1CC1)c1ccc(NS(=O)(=O)CCO)cc1OC1CCCCC1 [Example 27, 2-(cyclohexyloxy)-N-(1-(cyclopropylmethyl)indolin-4-yl)-4-((2-hydroxyethyl)sulfonamide)benzamide] | 5.30 to 6.30
O=C(Nc1ccnc(N2CCC(F)(F)CC2)c1)c1ccc(NS(=O)(=O)CCO)cc1OC1CCCC1 [Example 28, 2-(cyclopentoxy)-N-(2-(4,4-difluoropiperidin-1-yl)pyridin-4-yl)-4-((2-hydroxyethyl)sulfonamide)benzamide] | 5.30 to 6.30
O=C(Nc1cccc2c1CCN2CC1CC1)c1ccc(NS(=O)(=O)CCO)cc1OC1CCC(F)(F)CC1 [Example 29, N-(1-(cyclopropylmethyl)indolin-4-yl)-2-((4,4-difluorocyclohexyl)oxy)-4-((2-hydroxyethyl)sulfonamide)benzamide] | < 5.30
O=C(Nc1cccc2c1CCN2CC1CC1)c1ccc(NS(=O)(=O)CCO)cc1OC1CCCC1 [Example 30, 2-(cyclopentoxy)-N-(1-(cyclopropylmethyl)indolin-4-yl)-4-((2-hydroxyethyl)sulfonamide)benzamide] | 5.30 to 6.30
O=C(Nc1ccnc2c1CCN2CC1CC1)c1ccc(NS(=O)(=O)CCO)cc1N1CCC2(CC1)CC2 [Example 32, N-(1-(cyclopropylmethyl)-2,3-dihydro-1H-pyrrolo[2,3-b]pyridin-4-yl)-4-((2-hydroxyethyl)sulfanilamido)-2-(6-azaspiro[2.5]octan-6-yl)4-benzamide] | 6.30 to 7.30
O=C(Nc1ccnc2c1ccn2CC1CC1)c1ccc(NS(=O)(=O)CCO)cc1N1CCC2(CC1)CC2 [Example 33, N-(1-(cyclopropylmethyl)-1H-pyrrolo[2,3-b]pyridin-4-yl)-4-((2-hydroxyethyl)sulfanilamido)-2-(6-azaspiro[2.5]octan-6-yl)4-benzamide] | ≥ 7.30
O=C(Nc1ncnc2c1ccn2CC1CC1)c1ccc(NS(=O)(=O)CCO)cc1N1CCC2(CC1)CC2 [Example 34, N-(7-(cyclopropylmethyl)-7H-pyrrolo[2,3-d]pyrimidin-4-yl)-4-((2-hydroxyethyl)sulfonamido)-2-(6-azaspiro[2.5]octan-6-yl)benzamide] | 5.30 to 6.30
Cc1cc(NC(=O)c2ccc(NS(=O)(=O)CCO)cc2N2CCC3(CC2)CC3)c2ccn(CC3CC3)c2n1 [Example 37, N-(1-(cyclopropylmethyl)-6-methyl-1H-pyrrolo[2,3-b]pyridin-4-yl)-4-((2-hydroxyethyl)sulfonamido)-2-(6-azaspiro[2.5]oct-6-yl)benzamide] | 6.30 to 7.30
O=C(Nc1cccc2c1ccn2CC1CC1)c1ccc(NS(=O)(=O)CCO)nc1N1CCC2(CC1)CC2 [Example 38, N-(1-(cyclopropylmethyl)-1H-indol-4-yl)-6-((2-hydroxyethyl)sulfonamido)-2-(6-azaspiro[2.5]oct-6-yl)nicotinamide] | 6.30 to 7.30
CNc1cc(NS(=O)(=O)CCO)cc(N2CCC3(CC2)CC3)c1C(=O)Nc1cccc2c1ccn2CC1CC1 [Example 39] | 6.30 to 7.30
CNc1cc(NS(=O)(=O)CCO)cc(N2CCC3(CC2)CC3)c1C(=O)Nc1ccnc2c1ccn2CC1CC1 [Example 40] | 6.30 to 7.30

Reference: US20260070887A1 (Shenzhen Zhongge Biological Technology Co., Ltd., priority 2022, published 2026)
